{
  "source": "paper PMC11659602",
  "about": "“Discovering covalent cyclic peptide inhibitors of peptidyl arginine deiminase 4 (PADI4) using mRNA-display with a genetically encoded electrophilic warhead” (Communications Chemistry, 2024)",
  "key": {"PADI1": {"molecular_target": "T1, PADI1 (Homo sapiens, UniProt Q9ULC6)", "T1 construct": "human PADI1 (residue 1-663); made in house; host or cells: E. coli NiCo21(DE3)", "T1 sequence (Q9ULC6 1-663)": "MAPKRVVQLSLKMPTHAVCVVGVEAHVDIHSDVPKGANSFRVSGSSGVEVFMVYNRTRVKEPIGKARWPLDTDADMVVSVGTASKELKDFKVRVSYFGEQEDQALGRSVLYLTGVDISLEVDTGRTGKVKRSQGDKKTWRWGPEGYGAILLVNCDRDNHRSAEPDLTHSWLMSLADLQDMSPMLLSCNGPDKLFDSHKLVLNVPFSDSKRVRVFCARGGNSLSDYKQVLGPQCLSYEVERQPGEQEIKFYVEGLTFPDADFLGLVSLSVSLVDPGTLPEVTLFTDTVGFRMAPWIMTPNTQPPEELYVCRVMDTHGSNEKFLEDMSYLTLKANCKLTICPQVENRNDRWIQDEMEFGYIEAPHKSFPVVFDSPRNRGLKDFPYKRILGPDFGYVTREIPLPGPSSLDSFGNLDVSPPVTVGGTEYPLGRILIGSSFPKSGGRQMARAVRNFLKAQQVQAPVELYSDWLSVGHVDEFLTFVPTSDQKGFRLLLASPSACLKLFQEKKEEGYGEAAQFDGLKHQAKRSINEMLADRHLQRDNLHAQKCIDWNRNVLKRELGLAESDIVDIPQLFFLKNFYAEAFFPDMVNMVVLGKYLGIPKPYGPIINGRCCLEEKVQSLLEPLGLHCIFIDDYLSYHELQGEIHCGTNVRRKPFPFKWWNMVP", "assay": "Incubation time-dependent COLDER assay, selectivity", "type": "biochemical", "details": "for PADI1 activity normalised to 0.1% DMSO: quenched after 60 mins", "protocol": "To determine KI and kinact of covalent peptide inhibitors, COLDER assays were used[52]. Peptide dilutions were prepared using 5-fold dilutions from 500 µM and 300 µM to 0.8 µM and 2.4 µM, respectively, at 1% DMSO in COLDER buffer (50 mM HEPES, 150 mM NaCl and 2 mM DTT, pH 7.5). The 9 peptide dilutions were added to a 96-well plate, alongside a 1% DMSO control. An equal volume of 10 mM BAEE was added to each well and the solution was homogenised by pipette mixing. This was mixed with 50 nM His-PADI4, 0.6 mg/mL BSA and 10 mM CaCl2, in COLDER buffer, to bring the final volume to 300 µL in each well. Alternatively, His-PAD1 (100 nM) /His-PADI2 (100 nM) /His-PADI3 (250 nM) were used. For assays with PADI1 and PADI3, 10 mM N^α-benzoyl-L-arginine methyl […] (BAME) was used as the substrate instead of BAEE[48],[58],[59]. At 15-minute intervals, for 5 timepoints, 50 µL of solution was taken from each well and quenched with 10 µL EDTA (300 mM). 200 µL of COLDER solution containing 20 mM diacetyl monoxime/2,3-butanedione monoxime (Merck), 0.5 mM thiosemicarbazide (Acros Organics), 2.25 M H3PO4, 4.5 M H2SO4 and 1.5 mM NH4Fe(SO4)2.12H2O was added to each well. Samples were incubated for 20 min at 95 °C before measuring absorbance at 540 nm on a CLARIOstar Plus (BMG LABTECH). IC50 values for each time point were determined using non-linear regression with GraphPad Prism. Incubation time–dependent potency IC50(t) against incubation time was fitted to the Krippendorff equation (below) to determine KI and kinact using a Python script[53],[59]. […] IC50t=KI1+S/KM⋅2−2e^−ηIC50⋅kinact⋅t/ηIC50⋅kinact⋅t−1 WhereηIC50=IC50t/KI1+S/KM+IC50t"}, "PADI4": {"molecular_target": "T2, PADI4 (Homo sapiens, UniProt Q9UM07)", "T2 construct": "His6; made in house", "T2 sequence (Q9UM07 whole entry)": "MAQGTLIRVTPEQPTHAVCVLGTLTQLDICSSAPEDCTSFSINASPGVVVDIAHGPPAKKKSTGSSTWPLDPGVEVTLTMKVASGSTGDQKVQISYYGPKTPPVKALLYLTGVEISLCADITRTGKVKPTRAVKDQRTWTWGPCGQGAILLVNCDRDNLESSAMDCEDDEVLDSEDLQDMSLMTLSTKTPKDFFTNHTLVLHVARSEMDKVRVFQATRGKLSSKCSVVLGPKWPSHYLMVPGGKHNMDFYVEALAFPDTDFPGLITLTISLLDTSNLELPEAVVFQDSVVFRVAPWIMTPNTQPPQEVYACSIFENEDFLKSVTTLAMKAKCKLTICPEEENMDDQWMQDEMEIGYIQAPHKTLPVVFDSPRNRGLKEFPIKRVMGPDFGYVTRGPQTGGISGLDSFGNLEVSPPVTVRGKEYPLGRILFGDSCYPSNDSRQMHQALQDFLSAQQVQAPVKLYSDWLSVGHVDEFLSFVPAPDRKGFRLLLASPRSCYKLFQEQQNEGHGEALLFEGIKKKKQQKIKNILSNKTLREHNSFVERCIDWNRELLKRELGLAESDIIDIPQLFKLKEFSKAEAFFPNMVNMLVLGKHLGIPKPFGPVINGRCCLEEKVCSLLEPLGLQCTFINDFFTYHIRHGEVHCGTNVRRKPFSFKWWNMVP", "assay": "Surface plasmon resonance (SPR), single cycle kinetics", "type": "binding", "details": "for Ki: k-1/k+1", "method_in_brief": "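Biotinylated His-PADI4 captured on CAP chip (~3000 RU); peptides as 5-point 3-fold series in HEPES, 150 mM NaCl, 10 mM CaCl2, 0.1% DMSO, pH 7.5, triplicate. Warhead peptides fitted two-state (k-2 = 0; Ki = k-1/k+1, kinact = k+2); others 1:1.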"}, "[1]": {"details": "each replicate, read-out: k2 / kinact"}, "[2]": {"details": "two-state reaction model, k+2, read-out: SPR kinact (converted)"}},
  "note": "Values joined by “and” are separate entries in the source; they are usually repeats but may differ in a detail not shown here. Equal values may be shown once. Read-outs that look alike come from different tables or passages of the source. Where a SMILES comes first, the peptide text is derived from it. Bridges are numbered along the chain shown (N, C = ends). [ ]: non-standard residue; d: D form. Orn(fluoroacetimidoyl) = N=C(CF)NCCC[C@H](N)C(=O)O",
  "data": [
    {"smiles": "N=C(N)NCCC[C@@H]1NC(=O)[C@H](CCCNC(=N)CF)NC(=O)[C@H](CC(=O)O)NC(=O)[C@H](Cc2ccc(O)cc2)NC(=O)[C@H](CCCCN)NC(=O)[C@H](CO)NC(=O)[C@@H](Cc2ccc(O)cc2)NC(=O)CSC[C@@H](C(=O)NCC(N)=O)NC(=O)[C@H](CC(=O)O)NC(=O)[C@H](CCCNC(=N)N)NC(=O)[C@@H]2CCCN2C(=O)[C@H](CO)NC1=O", "note": "[cP4_4, ySKYD(2)RSPRDCG] ({CH2CO}-[dY]SKYD[Orn(fluoroacetimidoyl)]RSPRDCG-NH2; thioether N-12)", "values": [
      {"measurement": "PADI1 activity, normalised (Figure S11c)", "setting": "PADI1; cP4_4 0.08 µM", "value": "100 and 102.598"},
      {"measurement": "PADI1 activity, normalised (Figure S11c)", "setting": "PADI1; cP4_4 0.24 µM", "value": "93.9237 and 90.941"},
      {"measurement": "PADI1 activity, normalised (Figure S11c)", "setting": "PADI1; cP4_4 0.4 µM", "value": "98.9277 and 105.899"},
      {"measurement": "PADI1 activity, normalised (Figure S11c)", "setting": "PADI1; cP4_4 1.2 µM", "value": "98.9873 and 104.073"},
      {"measurement": "PADI1 activity, normalised (Figure S11c)", "setting": "PADI1; cP4_4 2 µM", "value": "100.477 and 105.618"},
      {"measurement": "PADI1 activity, normalised (Figure S11c)", "setting": "PADI1; cP4_4 6 µM", "value": "94.7578 and 98.4551"},
      {"measurement": "PADI1 activity, normalised (Figure S11c)", "setting": "PADI1; cP4_4 10 µM", "value": "89.6942 and 96.559"},
      {"measurement": "PADI1 activity, normalised (Figure S11c)", "setting": "PADI1; cP4_4 30 µM", "value": "69.6188 and 76.5449"},
      {"measurement": "PADI1 activity, normalised (Figure S11c)", "setting": "PADI1; cP4_4 50 µM", "value": "54.4281 and 69.382"},
      {"measurement": "kinact/KI", "setting": "PADI4", "value": 15200, "unit": "M⁻¹ s⁻¹"},
      {"measurement": "k2 / kinact", "setting": "PADI4; each replicate", "value": 0.0019, "unit": "s⁻¹"},
      {"measurement": "kinact", "setting": "PADI4; [1]", "value": 0.0017, "unit": "s⁻¹"},
      {"measurement": "kinact", "setting": "PADI4; [2]", "value": 0.00183, "unit": "s⁻¹"},
      {"measurement": "Ki", "setting": "PADI4; two-state reaction model", "value": "120 ± 10", "unit": "nM"}
    ]},
    {"smiles": "CC(C)C[C@@H]1NC(=O)[C@H](CCCCN)NC(=O)[C@H](CO)NC(=O)[C@H](CO)NC(=O)[C@H](Cc2ccc(O)cc2)NC(=O)[C@H](Cc2c[nH]cn2)NC(=O)[C@H](CCCNC(=N)CF)NC(=O)[C@H](CC(=O)O)NC(=O)[C@H](CC(C)C)NC(=O)[C@@H](Cc2ccc(O)cc2)NC(=O)CSC[C@@H](C(=O)NCC(N)=O)NC(=O)[C@H](Cc2ccc(O)cc2)NC1=O", "note": "[cP4_15, yLD(2)HYSSKLYCG] ({CH2CO}-[dY]LD[Orn(fluoroacetimidoyl)]HYSSKLYCG-NH2; thioether N-12)", "values": [
      {"measurement": "PADI1 activity normalised to 0.1% DMSO", "setting": "PADI1; 0.08 µM", "value": "100.799 and 102.269"},
      {"measurement": "PADI1 activity normalised to 0.1% DMSO", "setting": "PADI1; 0.24 µM", "value": "99.0011 and 78.928"},
      {"measurement": "PADI1 activity normalised to 0.1% DMSO", "setting": "PADI1; 0.4 µM", "value": "101.598 and 103.89"},
      {"measurement": "PADI1 activity normalised to 0.1% DMSO", "setting": "PADI1; 1.2 µM", "value": "101.532 and 99.3516"},
      {"measurement": "PADI1 activity normalised to 0.1% DMSO", "setting": "PADI1; 2 µM", "value": "105.527 and 101.88"},
      {"measurement": "PADI1 activity normalised to 0.1% DMSO", "setting": "PADI1; 6 µM", "value": "100.999 and 97.3417"},
      {"measurement": "PADI1 activity normalised to 0.1% DMSO", "setting": "PADI1; 10 µM", "value": "97.1365 and 102.594"},
      {"measurement": "PADI1 activity normalised to 0.1% DMSO", "setting": "PADI1; 30 µM", "value": "94.4062 and 95.3966"},
      {"measurement": "PADI1 activity normalised to 0.1% DMSO", "setting": "PADI1; 50 µM", "value": "83.818 and 84.4392"},
      {"measurement": "kinact/KI", "setting": "PADI4", "value": 26600, "unit": "M⁻¹ s⁻¹"},
      {"measurement": "k2 / kinact", "setting": "PADI4; each replicate", "value": 0.0051, "unit": "s⁻¹"},
      {"measurement": "kinact", "setting": "PADI4; [1]", "value": 0.0028, "unit": "s⁻¹"},
      {"measurement": "kinact", "setting": "PADI4; [2]", "value": 0.00417, "unit": "s⁻¹"},
      {"measurement": "Ki", "setting": "PADI4; two-state reaction model", "value": "160 ± 30", "unit": "nM"}
    ]}
  ]
}
